Measured values taken from US12410160B2 (Gilead Sciences, Inc., priority 2021, dated 2025).
Like-named read-outs stand apart in the source and are kept apart here.

Tests used:
human KHK-C = human KHK-C (Homo sapiens (Human), UniProt P50053); experiment: KHK Biochemical Assay (IC50), ADP-Glo, KHK-C; settings: average of at least two separate assays
In short: (§1)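 Luminescent ADP-Glo read-out of ADP made by His-tagged KHK (BL21 (DE3) expression, Ni-NTA). Enzyme and compound sat together 30 min before ATP/fructose addition, then reacted 4 h at RT in Hepes pH 7.4 buffer with KCl, MgCl2, Triton-X. Quench 1 h, detection 1 h.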

HepG2 cells = experiment: F1P Cell-Based Assay (EC50), 13C6-fructose-1-phosphate in HepG2 cells (cell culture medium or 50% human plasma); settings: Homo sapiens
human OATP1B1 [1] = biological target: T1, human OATP1B1 (Homo sapiens (Human), UniProt Q9Y6L6); experiment: In Vitro Inhibition Assessment with Human OATP1B1 Transporter; type: in vitro ADME; settings: HEK293-OATP1B1 cells, probe substrate pravastatin
T1 sequence (Q9Y6L6 whole entry): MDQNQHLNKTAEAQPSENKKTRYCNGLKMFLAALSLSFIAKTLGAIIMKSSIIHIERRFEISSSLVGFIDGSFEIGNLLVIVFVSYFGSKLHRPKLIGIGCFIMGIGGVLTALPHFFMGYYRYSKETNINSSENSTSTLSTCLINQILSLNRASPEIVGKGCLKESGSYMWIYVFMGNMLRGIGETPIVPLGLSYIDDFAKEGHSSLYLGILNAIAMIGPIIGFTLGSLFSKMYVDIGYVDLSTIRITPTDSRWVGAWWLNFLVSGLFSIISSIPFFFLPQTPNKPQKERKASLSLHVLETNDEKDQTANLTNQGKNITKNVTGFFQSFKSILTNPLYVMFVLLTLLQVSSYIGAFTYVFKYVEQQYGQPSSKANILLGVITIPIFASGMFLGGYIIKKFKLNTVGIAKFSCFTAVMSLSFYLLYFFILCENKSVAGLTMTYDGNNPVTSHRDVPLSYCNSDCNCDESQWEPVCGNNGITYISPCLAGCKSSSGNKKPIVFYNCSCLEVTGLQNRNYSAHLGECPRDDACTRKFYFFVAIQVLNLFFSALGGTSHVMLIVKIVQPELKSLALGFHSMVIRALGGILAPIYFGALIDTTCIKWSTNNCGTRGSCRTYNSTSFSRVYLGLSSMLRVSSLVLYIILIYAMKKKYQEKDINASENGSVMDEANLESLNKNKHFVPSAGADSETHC
In short: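 HEK293-OATP1B1 and mock cells were preincubated 15 min with compound in HBSS. They were then coincubated 5 min with compound plus pravastatin (0.4% DMSO final), and intracellular substrate was quantified by LC-MS/MS. Mock-corrected uptake relative to solvent gave percentage activity, from which IC50 was fitted.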

human OATP1B1 [2] = biological target: T1, human OATP1B1; experiment: In Vitro Substrate Assessment with Human OATP1B1 Transporter; type: in vitro ADME; settings: HEK293-OATP1B1 vs mock cells; substrate if uptake ≥2-fold of mock and decreased by ≥30% with known OATP inhibitor
Excerpt: In Vitro Substrate Assessment with Human OATP1B1 and OATP1B3 Transporters
The purpose of this assay was to assess whether test articles (TAs), were substrates for the hepatic uptake transporters organic anion transporting polypeptide (OATP) 1B1 (SLCO1B1) and 1B3 (SLCO1B3) using non-transfected (Mock) and transfected human embryonic kidney (HEK293) cells. […] On assay day, media were removed from the assay plates and cells were washed with Hanks' Balanced Salt Solution (HBSS Buffer) (Corning, Cat. #21-023-CV). Cells were preincubated with HBSS buffer with or without known OATP inhibitors for 30 minutes. […] The incubation period was 2 minutes. Cells were then washed three times with ice cold HBSS buffer and then were immediately extracted with methanol:water (70:30 v:v) containing internal standard labetolol (30 nM). The supernatants were evaporated to dryness on injection plates and reconstituted in 80% water containing 20% acetonitrile and 0.1% formic acid for analysis by liquid chromatography with tandem mass spectrometry (LC-MS-MS).
The rate of uptake into cells was determined by the following formula: Rate of uptake=(A*B)/(C*D)
• A: concentration of compound in cell lysate • B: volume of sample • C: Incubation time • D: millions of cells in sample
A TA was considered a substrate for OATP transporter if: (1) the rate of uptake in the transporter transfected cells was ≥2-fold of the rate of uptake in the mock cells; and (2) the rate of uptake in the transporter transfected cells was decreased by ≥30% in the presence of a known OATP inhibitor.

[3] = biological target: KHK-C expressed in NRK-52E cells (Homo sapiens (Human), UniProt P50053); experiment: KHK-C Cell-based Assay (EC50), NRK CTG, fructose-mediated ATP-depletion
KHK-C expressed in NRK-52E cells, sequence (P50053 whole entry): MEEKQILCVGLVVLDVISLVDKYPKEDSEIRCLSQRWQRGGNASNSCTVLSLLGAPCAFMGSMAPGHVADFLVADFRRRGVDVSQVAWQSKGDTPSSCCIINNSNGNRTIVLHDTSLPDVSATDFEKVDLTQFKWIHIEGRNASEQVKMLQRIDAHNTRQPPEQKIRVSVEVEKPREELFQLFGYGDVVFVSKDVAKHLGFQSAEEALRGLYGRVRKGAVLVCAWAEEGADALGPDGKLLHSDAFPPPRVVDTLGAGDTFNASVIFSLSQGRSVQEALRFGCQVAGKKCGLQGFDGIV

[4] = pKa analysis by capillary electrophoresis (pKa PRO Analyzer, co-solvent method); type: physicochemical; settings: methanol/aqueous co-solvent buffers, co-solvent method (60% to 30% methanol buffers)
In short: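 Capillary electrophoresis by the co-solvent method, with 100 μM compound and 1% DMSO in 2 mM HCl or NaOH at 60% methanol.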

human KHK-A = human KHK-A (Homo sapiens (Human), UniProt P50053); experiment: KHK Biochemical Assay (IC50), ADP-Glo, KHK-A; settings: average of at least two separate assays
human KHK-A, sequence (P50053 other isoform, or with tags, fused parts or gaps): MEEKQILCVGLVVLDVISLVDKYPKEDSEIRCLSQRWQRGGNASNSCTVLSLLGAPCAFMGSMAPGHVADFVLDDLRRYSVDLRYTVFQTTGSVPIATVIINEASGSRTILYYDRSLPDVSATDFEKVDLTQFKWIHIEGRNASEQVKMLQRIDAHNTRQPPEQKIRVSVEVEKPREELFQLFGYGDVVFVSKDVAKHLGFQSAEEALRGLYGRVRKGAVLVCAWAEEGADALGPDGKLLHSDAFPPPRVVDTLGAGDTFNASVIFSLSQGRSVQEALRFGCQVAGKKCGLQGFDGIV
In short: as §1

[5] = HepG2, HepG2 cells, 50% human plasma, read-out: F1P 50% HP EC50
[6] = HepG2, read-out: F1P 10% FBS EC50, HepG2 cells, cell culture medium (10% FBS)
[7] = pH range 1.7-11.2, read-out: 1st pKa

human KHK-C, sequence (P50053 whole entry): as the sequence (P50053 whole entry) above

IC50 (human KHK-C; ADP-Glo) [nM] | EC50 (HepG2 cells; [5]) [nM] | EC50 (HepG2 cells; [6]) [nM] | IC50 (human OATP1B1 [1]) [nM] | OATP1B1 Substrate (human OATP1B1 [2]) | EC50 [3] [nM] | pKa [4, 7] | pKa ([4]; pH range 1.7-11.2, read-out: 2nd pKa) | IC50 (human KHK-C) [nM] | IC50 (human KHK-A) [nM] | SMILES
5 | 47.3 | 36.7 | 1740 | YES | 39.7 | – | – | – | – | C[C@H]1[C@H](O)CN1c1nc(-c2ccc3c(c2)OCCNC3=O)c2c(n1)C(F)(F)CC2 [Example 166, 8-(7,7-difluoro-2-((2S,3R)-3-hydroxy-2-methylazetidin-1-yl)-6,7-dihydro-5H-cyclopenta[d]pyrimidin-4-yl)-3,4-dihydrobenzo[f][1,4]oxazepin-5(2H)-one]
– | – | – | 5570 | YES | 249 | 3.54 | 9.45 | – | – | C[C@H]1[C@H](O)CN1c1nc2c(c(-c3cccc(S(N)(=O)=O)c3)n1)CCC2 [Example 209, 3-[2-[(2S,3R)-3-hydroxy-2-methyl-azetidin-1-yl]-6,7-dihydro-5H-cyclopenta[d]pyrimidin-4-yl]benzenesulfonamide]
– | 6.8 | 1.7 | 5410 | – | 5.7 | 6.3 | – | 0.5 | 1 | NC1(c2ccc(-c3nc(N4CC[C@@H]4C(F)(F)F)nc4c3CCC4(F)F)cc2)COC1 [Example 696, 3-[4-[7,7-difluoro-2-[(2R)-2-(trifluoromethyl)azetidin-1-yl]-5,6-dihydrocyclopenta[d]pyrimidin-4-yl]phenyl]oxetan-3-amine]
– | – | – | 1190 | YES | – | – | – | – | – | C[C@H]1CCN1c1nc(N2C[C@@H]3[C@@H](CC(=O)O)[C@@H]3C2)cc(C(F)(F)F)n1 [Reference Compound 1, reference compound]
– | – | – | 267 | YES | – | – | – | – | – | C[C@H]1CCN1c1nc(N2CC[C@H](CC(=O)O)C2)cc(C(F)(F)F)c1C#N [Reference Compound 2, 2-((R)-1-(5-cyano-6-((S)-2-methylazetidin-1-yl)-4-(trifluoromethyl)pyridin-2-yl)pyrrolidin-3-yl)acetic acid, reference compound]
– | – | – | 720 | YES | – | – | – | – | – | C[C@H]1CCN1c1nc(N2C[C@@H]3[C@@H](CC(=O)O)[C@@H]3C2)c2c(n1)C(F)(F)CC2 [Reference Compound 5, reference compound]
– | – | – | 960 | YES | – | – | – | – | – | C[C@H]1CCN1c1nc(N2C[C@@H]3[C@@H](CC(=O)O)[C@@H]3C2)c2c(n1)C(F)(F)CCC2 [Reference Compound 6, reference compound]
